According to the NIST ThermoML archive (doi:10.1021/je800899w):

How the values were obtained:
[1] = refractive index (Na D-line) (dimensionless); conditions: 298.15 K; 101.33 kPa; Liquid; Standard Abbe refractometry
[2] = 298.15 K, 101.33 kPa, Liquid; for viscosity: Capillary tube (Ostwald / Ubbelohde) method; for mass density: Vibrating tube method
[3] = xn = mol fraction of the nth substance listed; conditions: 298.15 K, 101.3 kPa, Liquid; for viscosity: Capillary tube (Ostwald / Ubbelohde) method
[4] = refractive index (Na D-line) (dimensionless); xn = mol fraction of the nth substance listed; conditions: 298.15 K, 101.3 kPa, Liquid, Standard Abbe refractometry

CCCCCCCCn1cc[n+](C)c1.O=S(=O)([N-]S(=O)(=O)C(F)(F)F)C(F)(F)F
Conditions | mass density [kg/m3] | refractive index | viscosity [mPa·s]
[1] | – | 1.43298 | –
[2] | 1320.59 | – | 92.51

CCCCCCCCn1cc[n+](C)c1.O=S(=O)([N-]S(=O)(=O)C(F)(F)F)C(F)(F)F + CCO
Conditions | mass density, [3] [kg/m3] | refractive index, [4] | viscosity, [3] [mPa·s]
x2 = 0.0959 | 1311.29 | 1.43164 | 71.28
x2 = 0.1162 | 1309.17 | 1.43133 | 67.63
x2 = 0.1935 | 1300.29 | 1.43016 | 55.53
x2 = 0.2269 | 1296.02 | 1.42965 | 51.54
x2 = 0.3304 | 1280.78 | 1.42766 | 39.23
x2 = 0.4164 | 1265.19 | 1.42549 | 29.89
x2 = 0.5412 | 1235.17 | 1.42143 | 19.92
x2 = 0.6012 | 1216.21 | 1.41886 | 15.86
x2 = 0.7033 | 1173.46 | 1.41319 | 10.25
x2 = 0.8067 | 1106.85 | 1.40447 | 5.83
x2 = 0.8967 | 1010.5 | 1.39142 | 3.079

CCCCCCCCn1cc[n+](C)c1.O=S(=O)([N-]S(=O)(=O)C(F)(F)F)C(F)(F)F + CCOC(C)=O
Conditions | mass density, [3] [kg/m3] | refractive index, [4] | viscosity, [3] [mPa·s]
x2 = 0.0493 | 1314.93 | 1.43216 | 78.89
x2 = 0.1112 | 1307.34 | 1.43115 | 65.93
x2 = 0.1546 | 1301.55 | 1.43042 | 58.25
x2 = 0.2125 | 1293.1 | 1.4293 | 48.82
x2 = 0.3102 | 1276.6 | 1.42726 | 34.78
x2 = 0.404 | 1257.53 | 1.42453 | 24.15
x2 = 0.4779 | 1239.88 | 1.42219 | 17.54
x2 = 0.5967 | 1203.86 | 1.41721 | 9.795
x2 = 0.7035 | 1160.22 | 1.41123 | 5.384
x2 = 0.8233 | 1089.62 | 1.40097 | 2.284
x2 = 0.9016 | 1022.64 | 1.391 | 1.233

CCO [ethanol]
Conditions | refractive index | viscosity [mPa·s]
[1] | 1.35928 | –
[2] | – | 1.054

CCOC(C)=O [ethyl acetate]
Conditions | mass density [kg/m3] | refractive index | viscosity [mPa·s]
[1] | – | 1.36983 | –
[2] | 894.4 | – | 0.4256

CCOC(C)=O [ethyl acetate] + CCO
Conditions | mass density, [3] [kg/m3] | refractive index, [4] | viscosity, [3] [mPa·s]
x1 = 0.0941 | 800.65 | 1.36064 | 0.855
x1 = 0.1919 | 815.09 | 1.36193 | 0.692
x1 = 0.2836 | 827.27 | 1.36309 | 0.619
x1 = 0.4044 | 841.69 | 1.36447 | 0.541
x1 = 0.5014 | 852.05 | 1.36548 | 0.505
x1 = 0.6085 | 862.53 | 1.36649 | 0.467
x1 = 0.6949 | 870.3 | 1.36724 | 0.444
x1 = 0.7929 | 878.51 | 1.36811 | 0.436
x1 = 0.8957 | 886.6 | 1.36895 | 0.424
